Measured values reported in patent publication US7736856B2, “Method of screening drug with the use of 67 kDa laminin receptor and drug obtained thereby” (Kyushu TLO Company, Limited, priority 2003, dated 2010).

How the values were obtained:
[1] = test system: 67LR forced expression cells (A549); test: Cell growth test (cell count, Tripanblue staining) on 67LR transient expression A549 cells; format: cell-based, human; conditions: for number of the cells / growth inhibiting effect (influence of 67LR gene introduction) / survival rate (influence of 67LR gene introduction): 5 μM, 0.5 μg pTARGET-hLamininR in A549 cells; for survival rate (influence of 67LR gene introduction): Tripanblue staining
Description: The 67LR expression vector constructed (pTARGET-hLamininR) was introduced into A549 cells, using FuGENE™ 6 Transfection Reagent. Its details are described below. The cells were inoculated into a 10% FBS-ERDF medium at 1×10^4 cells/ml. By keeping at 37° C. for 24 hours, the cells were adhered to the medium. Next, a fresh ERDF medium was put into a tube, and FuGENE™ 6 (three times the amount of the gene) was directly added and gently mixed. Next, pTARGET-hLamininR was added and gently mixed, and this was kept at room temperature for 30 minutes. This was added to the medium, and kept at 37° C. for 48 hours. The cells were washed with a medium, and then the medium was changed with a fresh one.
(§1) Various components of various concentrations were added to the 67LR transient expression cells, and treated in a 5% FBS-containing ERDF medium at 37° C. for 48 hours. After the treatment, the number of the cells was counted, and the survival rate of the cells was determined according to a Tripanblue staining method.
Using FuGENE™ 6 Transfection Reagent, a 67LR expression vector (pTARGET-hLamininR) was introduced into A549 cells according to the method mentioned below. The cells were inoculated at 1×10^4 cells/ml (10% FBS-ERDF medium). After 24 hours, a fresh ERDF medium was put into a tube, and FuGENE™ 6 (three times the amount of the gene) was directly added and gently mixed. Next, pTARGET-hLamininR of varying concentrations were added and gently mixed, and this was kept at room temperature for 30 minutes. This was added to the medium, and was continuously cultured at 37° C. for 48 hours. EGCG of various concentrations were added to the 67LR transient expression cells, and treated with a 5% FBS-containing ERDF medium at 37° C. for 48 hours. After the treatment, the number of the cells was counted and the survival rate thereof was determined according to a Tripanblue staining method.
First, the influence of the substances on the growth of 67LR forced expression cells was investigated. Similarly to the above, 0.5 μg of pTARGET-hLamininR was introduced into A549 cells by the lipofection method, followed by cultivation at 37° C. for 48 hours. Then, the cells were treated with various tea components each having a final concentration of 5 μM. The cells were further cultivated at 37° C. for 48 hours, and then the number of the cells and the survival rate thereof were determined.

[2] = test system: A549 cells; test: Binding to A549 cells (empty vector / parent) by surface plasmon resonance sensor; parameters: species or system human; conditions: for cell binding to A549 cells: surface plasmon resonance biosensor, 5 μM
Description: (§2) The binding of various component (5 μM) to the cells was determined by using a surface plasmon resonance sensor SPR670 (Nippon Laser and Electronic Lab., Nagoya, Japan). For the measurement, the cells were fixed on a gold membrane (Nippon Laser and Electronic Lab.) according to a standard fixation method for protein. Precisely, a gold membrane was dipped in a solution in ethanol of […] of 4,4-dithiodibutyric acid, DDA (Tokyo Kasei Kogyo Co., Ltd., Tokyo, Japan) (this was prepared by dissolving 2.38 mg of DDA in 10 ml of 99% ethanol followed by diluting it with ethanol to 1/100) in such a manner that its gold surface could face upward, and gently stirred at room temperature for 30 minutes. Next, this was washed twice with ethanol with no pressure applied to the gold surface to thereby introduce a self-assembly membrane (SA membrane). 25 mg of a water-soluble carbodiimide, EDC (Wako Pure Chemicals) was dissolved in 1 ml of ultra-pure water; and 15 mg of N-hydroxysuccinimide, NHS (Wako Pure Chemicals) was dissolved in 9 ml of 1,4-dioxane (Nacalai Tesque, Inc.). These solutions were mixed, and the SA membrane-processed gold membrane was dipped into the mixture, and gently stirred at room temperature for 10 minutes. 10 ml of ultra-pure water was added, and further stirred at room temperature for 5 minutes. This was washed twice with ultra-pure water with no water pressure applied to the gold surface thereof, then dried (in air), and mounted on a cartridge. The cells were suspended to a density of 3×10^5 cells/ml (in a flow buffer, PBS), and 20 μl of the cell suspension was dropwise applied onto the gold membrane and kept at room temperature for 30 minutes so as to fix the cells onto the membrane. Next, a green tea catechin diluted with PBS to have a concentration of 1, 10, 25 or 50 μM was applied thereto, and the change in the surface plasmon resonance angle was determined so as to monitor its binding to the cells.
(§3) 67LR is a membrane protein existing in a cell membrane, and the fact that the EGCG effect was enhanced in the cells with the gene expression vector introduced therein would be due to the increase in the EGCG binding. Accordingly, the EGCG binding to the cells was determined by the sue of a surface plasmon resonance sensor. EGCG was used at 5 μM.

[3] = biological target: T1, 67LR forced expression cells (A549 with 67LR expression vector) (Homo sapiens, UniProt P08865); test: Binding to 67LR forced expression cells by surface plasmon resonance sensor; conditions: for change of cell binding in 67LR forced expression cells: surface plasmon resonance biosensor, 5 μM; for angle change (binding amount): EGCG 5 μM
T1 construct: expressed in transfected cells; host or cells: A549 cells, transient transfection with pTARGET-hLamininR (FuGENE 6)
Description: as §2, §3

[4] = biological target: T2, 67LR forced expression cells (Homo sapiens, UniProt P08865); test: Binding competition test of EGCG and anti-67LR antibody (surface plasmon resonance sensor); conditions: cells pretreated with anti-67LR antibody 10 μg/ml, 37° C., 30 minutes
T2 construct: expressed in transfected cells; host or cells: A549 cells, transient transfection with pTARGET-hLamininR (FuGENE 6)
Description: as §2, with “These solutions were mixed, and the SA membrane-processed gold membrane was dipped into the mixture, and gently stirred at room temperature for 10 minutes. 10 ml of ultra-pure water was added, and further stirred at room temperature for 5 minutes. This was washed twice with ultra-pure water with no water pressure applied to the gold surface thereof, then dried (in air), and mounted on a cartridge. The cells were suspended to a density of 3×10^5 cells/ml (in a flow buffer, PBS), and 20 μl of the cell suspension was dropwise applied onto the gold membrane and kept at room temperature for 30 minutes so as to fix the cells onto the membrane.” left out, “cells. […]” for “cells.”

[5] = biological target: T2, 67LR forced expression cells; test: Growth inhibition by EGCG after anti-67LR antibody pretreatment of 67LR forced expression cells; format: cell-based
Description: as §1
Regarding […] pretreatment, an anti-67LR antibody having a final concentration of 10 μg/ml (1% FBS-containing ERDF medium) was treated at 37° C. for 30 minutes, and then EGCG treatment was carried out so as to investigate the influence thereof on the antibody-treatment cells. As a negative control, the same treatment was carried out with mouse IgM.

[6] = biological target: 67LR on cell surfaces (Homo sapiens, UniProt P08865); test: Flow cytometry: influence of EGCG treatment on detection of cell surface 67LR by anti-67LR antibody; format: binding
Description: It is known that 67LR is expressed on cell surfaces. Therefore, 67LR expressed on the surfaces of the cells was detected through flow cytometry analysis using an anti-human laminin receptor (LR) antibody. The cells were collected, and using a 1.5-ml Eppendorf tube, they were added to 100 μl, as a whole, of 1% FBS-PBS at 1×10^6 cells therein. A primary antibody, anti-human LR antibody was added to it to have a final concentration of 10 μg/ml. This was incubated at 4° C. for 30 minutes, and then washed once with PBS. Next, a secondary antibody, anti-mouse IgM FITC-labeled antibody capable of recognizing an isotype of LR antibody was added to 25 μl, as a whole, of 1% FBS-PBS so as to have a final concentration of 12.5 μg/ml. This was incubated at 4° C. for 30 minutes, then washed twice with PBS, and re-suspended in PBS, and analyzed with a flow cytometer. A negative control IgM antibody of the same concentration (10 μg/ml) was reacted in the same manner as herein. The 67LR expression amount on the cell surfaces was indicated by the center value of the fluorescent intensity of LR.
For the purpose of investigating the influence of EGCG treatment on the cell surface expression of 67LR, the cells were treated with an EGCG-added 1% FBS-PBS having a final EGCG concentration of 50 μM, and then kept at 37° C. for 30 minutes. This was washed once with PBS. Then, this was treated in the same manner as above with the primary antibody and others, and analyzed. As a control, the cells were treated with an EGCG-free 1% FBS-PBS.

Molecule	number of the cells / growth inhibiting effect (influence of 67LR gene introduction) ([1]; 48 hours)	cell binding to A549 cells [2]	change of cell binding in 67LR forced expression cells [3]	survival rate (influence of 67LR gene introduction) ([1]; 48 hours)	further results
Cn1c(=O)c2c(ncn2C)n(C)c1=O [caffeine, Caffeine]	no influence	did not show cell binding	no change	–	–
COc1cc(C(=O)O[C@@H]2Cc3c(O)cc(O)cc3O[C@@H]2c2cc(O)c(O)c(O)c2)cc(O)c1O [EGCG3″Me, epigallocatechin-3-(3-O-methyl)-gallate]	increase in the growth inhibiting effect	showed cell binding though not comparable to that of EGCG	cell binding increased	–	–
O=c1c(O)c(-c2ccc(O)c(O)c2)oc2cc(O)cc(O)c12 [quercetin]	no influence	did not show cell binding	no change	no influence	–
Oc1cc(O)c2c(c1)O[C@H](c1cc(O)c(O)c(O)c1)[C@H](O)C2 [EGC, epigallocatechin]	no influence	no binding	no change	no influence	–
O=C(O[C@@H]1Cc2c(O)cc(O)cc2O[C@@H]1c1ccc(O)c(O)c1)c1cc(O)c(O)c(O)c1 [ECG, epicatechin-3-O-gallate]	increase in the growth inhibiting effect	showed cell binding though not comparable to that of EGCG	cell binding increased	–	–
epigallocatechin-3-O-gallate [EGCG]	increase in the growth inhibiting effect	–	–	–	EGCG binding amount (angle change) [4]: reduction; EGCG binding speed [4]: reduction; survival rate ([5]; EGCG with or without antibody pretreatment, Tripanblue staining): no influence on the survival rate was found; growth inhibiting activity after antibody treatment ([5]; anti-67LR antibody treatment before EGCG): the growth inhibiting activity was lost; growth inhibiting activity ([1]; EGCG 0.1 μM, 67LR forced expression cells): showed its growth inhibiting activity; cell growth inhibition ([1]; EGCG of various concentrations, 67LR transiently expressed A549 cells, 5% FBS ERDF, 37° C., 48 hours): concentration-dependent cell growth inhibition was observed; cell growth inhibition versus 67LR gene amount introduced ([1]; pTARGET-hLamininR of varying concentrations, EGCG, 48 hours): in proportion to the 67LR gene amount introduced into the cells, cell growth inhibition was also observed; apparent 67LR expression detected by anti-67LR antibody after EGCG ([6]; EGCG 50 μM before antibody, 67LR-introduced cells): it was the same; apparent 67LR expression detected by anti-67LR antibody after EGCG ([6]; EGCG 50 μM before antibody, cells with empty vector): The same phenomenon was found; apparent 67LR expression detected by anti-67LR antibody after EGCG ([6]; EGCG 50 μM, 37° C., 30 minutes before antibody, control A549 cells): apparently disappeared; angle change (binding amount) ([2]; EGCG 5 μM, A549 cells with empty vector): Only a little angle change; angle change (binding amount) ([3]; cells with 0.25 μg of 67LR expression vector): a great increase in the angle; angle change (binding amount) ([3]; cells with 0.5 μg of 67LR expression vector): a further greater increase in the angle
catechin	no influence	no binding	no change	no influence	–
